Assay results: article PMC3914206

Columns and labels:
Assay in all cases: KiNativ chemical proteomics profiling in HeLa and PC3 cell lysates
Type in all cases: binding
[1] = target: T1, selected panels of kinases in HeLa and PC3 cell lysates (Homo sapiens, UniProt P08581); details: 10 uM, proteome PC3, labeling site Activation Loop
T1 construct: endogenous in cells; host or cells: HeLa and PC3 cell lysates

[2] = target: T2, selected panels of kinases in HeLa and PC3 cell lysates (Homo sapiens, UniProt P25098); details: 10 uM; proteome HEL; peptide DLk[…]; labeling site Lys2
T2 construct: endogenous in cells; host or cells: HeLa and PC3 cell lysates

[3] = target: T3, selected panels of kinases in HeLa and PC3 cell lysates (Homo sapiens, UniProt P43405); details: 10 uM; SYK; peptide ISDFGLSkALR; proteome HEL; labeling site Activation Loop
T3 construct: endogenous in cells; host or cells: HeLa and PC3 cell lysates

[4] = target: T4, selected panels of kinases in HeLa and PC3 cell lysates (Homo sapiens, UniProt P48729); details: 10 uM; proteome PC3; peptide DIk[…]; labeling site Lys2
T4 construct: endogenous in cells; host or cells: HeLa and PC3 cell lysates

[5] = target: T5, selected panels of kinases in HeLa and PC3 cell lysates (Homo sapiens, UniProt P48736); details: 10 uM; PIK3CG; peptide KkPLWLEFK; proteome HEL; labeling site ATP
T5 construct: endogenous in cells; host or cells: HeLa and PC3 cell lysates

[6] = target: T6, selected panels of kinases in HeLa and PC3 cell lysates (Homo sapiens, UniProt Q13233); details: 10 uM; proteome HEL; peptide DVk[…]; labeling site Lys2
T6 construct: endogenous in cells; host or cells: HeLa and PC3 cell lysates

[7] = target: T7, selected panels of kinases in HeLa and PC3 cell lysates (Homo sapiens, UniProt Q15418); details: 10 uM; RSK1 domain1; peptide LTDFGLSkEAIDHEK; proteome HEL; labeling site Activation Loop
T7 construct: endogenous in cells; host or cells: HeLa and PC3 cell lysates

[8] = target: T8, selected panels of kinases in HeLa and PC3 cell lysates (Homo sapiens, UniProt Q15831); details: 10 uM, peptide DIk[…], labeling site Lys2
T8 construct: endogenous in cells; host or cells: HeLa and PC3 cell lysates
T8 sequence (Q15831 1-433): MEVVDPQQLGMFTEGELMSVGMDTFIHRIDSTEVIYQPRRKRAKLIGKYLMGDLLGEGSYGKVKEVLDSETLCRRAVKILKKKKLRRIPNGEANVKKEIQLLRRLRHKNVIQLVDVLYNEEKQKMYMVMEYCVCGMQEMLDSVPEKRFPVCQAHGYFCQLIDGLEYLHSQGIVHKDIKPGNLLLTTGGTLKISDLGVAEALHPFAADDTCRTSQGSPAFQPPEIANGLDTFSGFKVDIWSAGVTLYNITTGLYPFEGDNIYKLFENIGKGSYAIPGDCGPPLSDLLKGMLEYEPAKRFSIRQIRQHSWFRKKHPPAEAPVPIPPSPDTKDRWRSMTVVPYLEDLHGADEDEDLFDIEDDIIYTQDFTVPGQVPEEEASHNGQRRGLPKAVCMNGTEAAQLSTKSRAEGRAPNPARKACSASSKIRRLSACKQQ

[9] = target: T9, selected panels of kinases in HeLa and PC3 cell lysates (Homo sapiens, UniProt Q8NEB9); details: 10 uM; PIK3C3; peptide […]kHGDDLR; proteome HEL; labeling site ATP
T9 construct: endogenous in cells; host or cells: HeLa and PC3 cell lysates

[10] = target: T10, selected panels of kinases in HeLa and PC3 cell lysates (Homo sapiens, UniProt Q96J92); details: 10 uM; Wnk4; peptide DLk[…]; proteome PC3; labeling site Lys2
T10 construct: endogenous in cells; host or cells: HeLa and PC3 cell lysates

[11] = target: T11, selected panels of kinases in HeLa and PC3 cell lysates (Homo sapiens, UniProt Q99683); details: 10 uM; proteome HEL; peptide DIk[…]; labeling site Lys2
T11 construct: endogenous in cells; host or cells: HeLa and PC3 cell lysates

[12] = target: T12, selected panels of kinases in HeLa and PC3 cell lysates (Homo sapiens, UniProt Q9NRH2); details: 10 uM; SNRK; peptide DLkPENVVFFEK; proteome PC3; labeling site Lys2
T12 construct: endogenous in cells; host or cells: HeLa and PC3 cell lysates

[13] = target: T13, selected panels of kinases in HeLa and PC3 cell lysates (Homo sapiens, UniProt Q9UBF8); details: 10 uM, PI4KB, peptide […]kDK, labeling site ATP
T13 construct: endogenous in cells; host or cells: HeLa and PC3 cell lysates

[14] = target: T14, selected panels of kinases in HeLa and PC3 cell lysates (Homo sapiens, UniProt Q9UHD2); details: 10 uM; TBK1; peptide TGDLFAIk[…]; proteome HEL; labeling site Lys1
T14 construct: endogenous in cells; host or cells: HeLa and PC3 cell lysates

[15] = target: T15, selected panels of kinases in HeLa and PC3 cell lysates (Homo sapiens, UniProt Q9UKI8); details: 10 uM, TLK1
T15 construct: endogenous in cells; host or cells: HeLa and PC3 cell lysates
T15 sequence (Q9UKI8 1-766): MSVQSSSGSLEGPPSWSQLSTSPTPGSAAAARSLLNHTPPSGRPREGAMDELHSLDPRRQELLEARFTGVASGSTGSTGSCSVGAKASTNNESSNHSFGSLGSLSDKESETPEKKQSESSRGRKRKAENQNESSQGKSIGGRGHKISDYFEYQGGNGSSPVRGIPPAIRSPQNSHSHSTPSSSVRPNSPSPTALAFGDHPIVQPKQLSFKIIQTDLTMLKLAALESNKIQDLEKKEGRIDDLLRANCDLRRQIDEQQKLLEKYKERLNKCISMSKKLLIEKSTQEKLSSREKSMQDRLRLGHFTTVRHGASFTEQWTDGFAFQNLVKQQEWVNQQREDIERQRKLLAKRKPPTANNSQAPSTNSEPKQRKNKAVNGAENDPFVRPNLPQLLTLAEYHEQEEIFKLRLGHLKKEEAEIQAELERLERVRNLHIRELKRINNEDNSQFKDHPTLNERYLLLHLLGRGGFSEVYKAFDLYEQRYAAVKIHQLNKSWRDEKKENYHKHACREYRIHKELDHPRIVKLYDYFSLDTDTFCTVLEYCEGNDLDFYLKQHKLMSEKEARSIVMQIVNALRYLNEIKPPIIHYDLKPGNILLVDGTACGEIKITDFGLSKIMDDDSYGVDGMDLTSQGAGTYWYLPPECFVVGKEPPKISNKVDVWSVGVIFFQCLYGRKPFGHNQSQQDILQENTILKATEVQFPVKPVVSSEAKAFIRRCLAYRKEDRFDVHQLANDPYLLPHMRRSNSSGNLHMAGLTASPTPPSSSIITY

[16] = target: T16, selected panels of kinases in HeLa and PC3 cell lysates (Homo sapiens, UniProt Q9Y6E0); details: 10 uM; proteome HEL; peptide DIk[…]; labeling site Lys2
T16 construct: endogenous in cells; host or cells: HeLa and PC3 cell lysates

[17] = peptide YAAVkIHQLNK, proteome HEL, labeling site Lys1
[18] = peptide YAAVkIHQLNK, proteome PC3, labeling site Lys1
[19] = peptide […]k[…], proteome HEL, labeling site Lys2
[20] = peptide […]k[…], proteome PC3, labeling site Lys2

T13 sequence (Q9UBF8 whole entry): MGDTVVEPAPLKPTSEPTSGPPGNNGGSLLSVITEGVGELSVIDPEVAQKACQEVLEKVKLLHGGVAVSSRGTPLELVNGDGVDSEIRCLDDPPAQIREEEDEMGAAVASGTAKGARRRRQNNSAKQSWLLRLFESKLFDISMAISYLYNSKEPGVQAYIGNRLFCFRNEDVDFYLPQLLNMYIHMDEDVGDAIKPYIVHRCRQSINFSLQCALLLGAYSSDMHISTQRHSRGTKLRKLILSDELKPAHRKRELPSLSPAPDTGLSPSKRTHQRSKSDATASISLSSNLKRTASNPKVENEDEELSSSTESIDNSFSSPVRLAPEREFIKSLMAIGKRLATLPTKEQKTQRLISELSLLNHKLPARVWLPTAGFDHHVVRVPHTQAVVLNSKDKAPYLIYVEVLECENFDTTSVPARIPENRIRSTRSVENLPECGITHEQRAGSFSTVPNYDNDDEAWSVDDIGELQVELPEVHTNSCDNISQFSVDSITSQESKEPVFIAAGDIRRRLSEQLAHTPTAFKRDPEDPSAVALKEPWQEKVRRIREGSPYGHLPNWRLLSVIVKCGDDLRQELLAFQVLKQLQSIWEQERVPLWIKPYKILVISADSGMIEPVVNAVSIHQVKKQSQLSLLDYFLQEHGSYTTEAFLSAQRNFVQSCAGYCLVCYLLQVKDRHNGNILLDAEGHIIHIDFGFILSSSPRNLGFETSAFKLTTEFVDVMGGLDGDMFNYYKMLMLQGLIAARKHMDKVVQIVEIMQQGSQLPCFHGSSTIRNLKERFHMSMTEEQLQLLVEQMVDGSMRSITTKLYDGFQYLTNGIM
T1 sequence (P08581 25-1390): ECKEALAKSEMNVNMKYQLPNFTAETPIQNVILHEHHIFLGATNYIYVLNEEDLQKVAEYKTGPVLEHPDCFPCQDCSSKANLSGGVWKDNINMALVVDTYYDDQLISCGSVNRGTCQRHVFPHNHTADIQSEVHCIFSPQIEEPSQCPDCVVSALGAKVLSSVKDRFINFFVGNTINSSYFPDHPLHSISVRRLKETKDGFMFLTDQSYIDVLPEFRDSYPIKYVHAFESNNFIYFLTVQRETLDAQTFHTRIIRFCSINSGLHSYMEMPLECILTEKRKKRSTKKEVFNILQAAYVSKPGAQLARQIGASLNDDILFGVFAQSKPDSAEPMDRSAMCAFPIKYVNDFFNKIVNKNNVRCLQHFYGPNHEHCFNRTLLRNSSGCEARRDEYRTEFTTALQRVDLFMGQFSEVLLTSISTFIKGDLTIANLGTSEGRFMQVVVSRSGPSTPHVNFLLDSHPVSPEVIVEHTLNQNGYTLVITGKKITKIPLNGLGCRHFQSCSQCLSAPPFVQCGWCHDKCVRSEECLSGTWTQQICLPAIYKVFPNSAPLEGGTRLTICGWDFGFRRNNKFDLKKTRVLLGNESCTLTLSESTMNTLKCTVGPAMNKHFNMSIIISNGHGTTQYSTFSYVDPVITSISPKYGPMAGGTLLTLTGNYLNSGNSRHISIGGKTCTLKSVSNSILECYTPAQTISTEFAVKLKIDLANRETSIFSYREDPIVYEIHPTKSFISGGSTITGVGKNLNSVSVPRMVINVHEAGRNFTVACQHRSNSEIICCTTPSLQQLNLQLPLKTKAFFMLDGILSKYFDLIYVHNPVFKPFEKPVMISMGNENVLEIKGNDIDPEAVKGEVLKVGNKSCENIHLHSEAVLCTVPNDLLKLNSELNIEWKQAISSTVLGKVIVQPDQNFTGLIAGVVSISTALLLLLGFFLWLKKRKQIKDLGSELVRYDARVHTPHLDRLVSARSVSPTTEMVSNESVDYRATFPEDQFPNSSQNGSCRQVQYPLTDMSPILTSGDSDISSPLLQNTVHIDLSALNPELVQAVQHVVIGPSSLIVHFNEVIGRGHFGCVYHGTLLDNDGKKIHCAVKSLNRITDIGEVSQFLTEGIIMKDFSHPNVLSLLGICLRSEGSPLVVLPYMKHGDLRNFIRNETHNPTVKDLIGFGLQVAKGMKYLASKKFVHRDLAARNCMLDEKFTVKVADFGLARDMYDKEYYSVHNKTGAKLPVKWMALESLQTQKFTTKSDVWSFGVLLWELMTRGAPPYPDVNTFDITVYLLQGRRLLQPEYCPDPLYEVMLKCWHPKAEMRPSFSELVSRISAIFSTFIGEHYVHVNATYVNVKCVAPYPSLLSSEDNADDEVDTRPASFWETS
T2 sequence (P25098 whole entry): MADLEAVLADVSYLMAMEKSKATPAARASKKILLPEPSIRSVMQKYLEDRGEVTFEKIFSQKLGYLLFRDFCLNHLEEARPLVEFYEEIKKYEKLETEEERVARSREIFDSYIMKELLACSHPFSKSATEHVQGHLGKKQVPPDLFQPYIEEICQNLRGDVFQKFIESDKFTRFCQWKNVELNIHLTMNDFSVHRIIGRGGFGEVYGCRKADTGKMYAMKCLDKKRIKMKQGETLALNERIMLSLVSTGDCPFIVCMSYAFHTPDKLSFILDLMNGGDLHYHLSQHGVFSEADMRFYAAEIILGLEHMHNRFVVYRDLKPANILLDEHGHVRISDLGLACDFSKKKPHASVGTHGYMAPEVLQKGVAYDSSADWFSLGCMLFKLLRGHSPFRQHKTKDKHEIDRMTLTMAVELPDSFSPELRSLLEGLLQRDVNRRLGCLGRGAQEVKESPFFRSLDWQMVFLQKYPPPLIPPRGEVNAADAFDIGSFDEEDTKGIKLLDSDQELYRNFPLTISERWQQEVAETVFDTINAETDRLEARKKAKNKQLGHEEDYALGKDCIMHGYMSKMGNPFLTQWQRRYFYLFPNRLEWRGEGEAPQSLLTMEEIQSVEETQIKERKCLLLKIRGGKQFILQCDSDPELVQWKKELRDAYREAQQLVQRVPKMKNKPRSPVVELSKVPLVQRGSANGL
T7 sequence (Q15418 whole entry, the tested form may be a part): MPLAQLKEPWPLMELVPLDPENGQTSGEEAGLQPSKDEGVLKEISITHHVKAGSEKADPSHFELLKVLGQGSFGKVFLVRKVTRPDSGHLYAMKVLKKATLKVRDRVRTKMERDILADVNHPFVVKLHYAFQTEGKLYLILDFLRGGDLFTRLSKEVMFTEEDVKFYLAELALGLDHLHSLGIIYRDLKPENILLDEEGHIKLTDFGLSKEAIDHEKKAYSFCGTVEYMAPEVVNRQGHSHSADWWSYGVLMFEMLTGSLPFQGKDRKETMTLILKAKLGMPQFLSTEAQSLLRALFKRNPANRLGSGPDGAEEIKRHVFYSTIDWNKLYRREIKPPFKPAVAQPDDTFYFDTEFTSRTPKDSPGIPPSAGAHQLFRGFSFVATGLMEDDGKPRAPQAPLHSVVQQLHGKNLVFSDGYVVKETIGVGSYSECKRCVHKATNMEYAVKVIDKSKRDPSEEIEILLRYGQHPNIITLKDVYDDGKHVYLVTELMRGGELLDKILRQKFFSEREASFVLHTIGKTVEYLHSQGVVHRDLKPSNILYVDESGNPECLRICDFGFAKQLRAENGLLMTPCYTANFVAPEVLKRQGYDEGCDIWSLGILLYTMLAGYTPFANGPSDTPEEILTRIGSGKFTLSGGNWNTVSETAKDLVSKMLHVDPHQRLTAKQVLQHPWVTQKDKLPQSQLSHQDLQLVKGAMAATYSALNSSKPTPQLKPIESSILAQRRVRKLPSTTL
T16 sequence (Q9Y6E0 whole entry): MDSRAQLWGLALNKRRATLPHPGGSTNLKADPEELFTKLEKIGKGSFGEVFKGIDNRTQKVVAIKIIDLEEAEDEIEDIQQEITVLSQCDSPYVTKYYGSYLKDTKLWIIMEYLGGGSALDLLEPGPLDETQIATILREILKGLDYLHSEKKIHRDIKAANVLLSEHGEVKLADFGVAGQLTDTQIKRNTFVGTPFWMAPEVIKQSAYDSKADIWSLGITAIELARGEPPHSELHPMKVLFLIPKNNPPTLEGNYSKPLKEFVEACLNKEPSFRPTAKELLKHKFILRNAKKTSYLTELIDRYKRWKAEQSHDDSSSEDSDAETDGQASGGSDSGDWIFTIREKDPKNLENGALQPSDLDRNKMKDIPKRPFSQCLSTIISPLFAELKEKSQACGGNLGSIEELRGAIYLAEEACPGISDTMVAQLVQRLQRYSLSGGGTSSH
T14 sequence (Q9UHD2 whole entry): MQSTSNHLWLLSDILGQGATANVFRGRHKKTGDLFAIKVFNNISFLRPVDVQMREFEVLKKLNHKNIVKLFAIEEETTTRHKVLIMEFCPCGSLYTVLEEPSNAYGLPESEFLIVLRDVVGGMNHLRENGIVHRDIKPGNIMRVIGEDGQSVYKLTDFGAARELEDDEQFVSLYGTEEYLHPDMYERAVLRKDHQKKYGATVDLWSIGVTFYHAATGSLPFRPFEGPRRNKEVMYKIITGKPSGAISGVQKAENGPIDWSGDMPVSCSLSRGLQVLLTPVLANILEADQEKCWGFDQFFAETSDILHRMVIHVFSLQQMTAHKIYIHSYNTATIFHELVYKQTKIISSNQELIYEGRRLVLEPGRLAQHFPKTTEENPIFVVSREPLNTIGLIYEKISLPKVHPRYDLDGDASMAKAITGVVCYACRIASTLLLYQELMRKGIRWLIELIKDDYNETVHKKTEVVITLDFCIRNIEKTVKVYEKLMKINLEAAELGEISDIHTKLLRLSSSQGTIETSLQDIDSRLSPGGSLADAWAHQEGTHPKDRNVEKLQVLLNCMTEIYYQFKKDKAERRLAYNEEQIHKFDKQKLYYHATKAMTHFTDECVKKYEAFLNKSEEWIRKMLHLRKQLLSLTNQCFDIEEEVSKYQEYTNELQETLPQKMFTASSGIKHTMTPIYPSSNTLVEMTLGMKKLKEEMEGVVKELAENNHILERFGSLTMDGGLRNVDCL

Structure (SMILES)	% Inhibiton, MET ([1]; peptide DMYDkEYYSVHNK)	% Inhibiton, MET ([1]; peptide […]kTGAK)	% Inhibiton, BARK1 [2]	% Inhibition SYK [3]	% Inhibiton, CK1a [4]	% Inhibition PIK3CG [5]	% Inhibiton, MAP3K1 [6]	% Inhibition RSK1 domain1 [7]	% Inhibiton, LKB1 ([8]; proteome HEL)	% Inhibiton, LKB1 ([8]; proteome PC3)	% Inhibition PIK3C3 [9]	% Inhibition Wnk4 [10]	% Inhibiton, MAP3K5 [11]	% Inhibition SNRK [12]	% Inhibition PI4KB ([13]; proteome HEL)	% Inhibition PI4KB ([13]; proteome PC3)	% Inhibition TBK1 [14]	% Inhibition TLK1 [15, 17]	% Inhibition TLK1 [15, 18]	% Inhibition TLK1 [15, 19]	further results
COc1cc(C(=O)N2CCC(N3CCN(C)CC3)CC2)ccc1Nc1ncc2c(n1)N(C1CCCC1)c1ccccc1C(=O)N2C [Compound 25, 11-cyclopentyl-2-((2-methoxy-4-(4-(4-methylpiperazin-1-yl)piperidine-1-carbonyl)phenyl)amino)-5-methyl-5H-benzo[e]pyrimido[5,4-b][1,4]diazepin-6(11H)-one]	-15.9%	4.8%	12.0%	5.7%	9.4%	11.8%	36.1%	0.161%	-0.266%	-4.1%	4.0%	-16.3%	17.3%	-15.7%	-21.6%	-6.1%	-96.8%	-21.7%	-9.7%	-8.4%	% Inhibition TLK1 [15, 20]: -12.2%; % Inhibiton, MST3 [16]: 7.3%
CCOc1cc(C(=O)N2CCC(N3CCN(C)CC3)CC2)ccc1Nc1ncc2c(n1)N(C1CCCC1)c1ccccc1C(=O)N2C [Compound 26]	-12.7%	9.2%	10.9%	-0.8%	-0.3%	45.3%	2.2%	5.6%	6.4%	-0.8%	8.1%	-2.1%	-8.4%	-6.9%	-1.9%	3.6%	~57.6%	35.7%	6.2%	3.6%	% Inhibition TLK1 [15, 20]: 6.8%; % Inhibiton, MST3 [16]: 9.7%
